Data taken from patent US20230293560A1, “METHOD FOR MODULATING THE BLADDER MICROBIOME TO IMPROVE BLADDER HEALTH” (Kimberly-Clark Worldwide, Inc., priority 2020, published 2023).

Columns and labels:
L. crispatus = experiment: High throughput assay screening of prebiotics; assay type: cell-based, Lactobacillus crispatus; set-up: key: ++: if growth and fermentation was equal to or greater than the positive control; +: if growth and fermentation was less than the positive control; +: if weak or no growth or fermentation; +^2: Bacteria demonstrated growth but no fermentation on the prebiotic; settings: 2% w/v prebiotic in API 50 CHL media; for growth and fermentation vs positive control, Lc-4: L. crispatus KC18-1174-1, Vagina
In short: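 Prebiotic or glucose/dextrose positive control in API 50 CHL minimal-carbon medium with bromocresol purple, inoculated with bacterial suspension (0.5 McFarland streptococci/enterococci, 1 McFarland lactobacilli). Read every 20 min for 24-48 h; OD430 rise/OD590 fall marks fermentation, OD660 rise marks growth, scored versus positive control.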

L. jensenii = experiment: High throughput assay screening of prebiotics; assay type: cell-based, Lactobacillus jensenii; set-up: key: ++: if growth and fermentation was equal to or greater than the positive control; +: if growth and fermentation was less than the positive control; +: if weak or no growth or fermentation; +^2: Bacteria demonstrated growth but no fermentation on the prebiotic; settings: 2% w/v prebiotic in API 50 CHL media
Procedure: Most of the prebiotic compounds were initially tested in a high throughput assay screening process, described further in the Test Methods section herein, but three prebiotics (as noted in Table 3) were tested using a plate assay screening process as described in the Test Methods section herein. The prebiotics were tested against the commensal bacterial species of Lactobacillus crispatus, Lactobacillus gasseri, and Lactobacillus jensenii and against the pathogenic bacterial species of Streptococcus anginosus and Enterococcus faecalis as shown in Table 2. The bacterial species were taken from different sources, listed as culture collection, bladder, and vagina.
The results of the assay plate screening of the prebiotic compounds of Table 1 against the bacterial species of Table 2 is documented in Table 3 with the results being described by the following legend: • ++ if growth and fermentation was equal to or greater than the positive control • + if growth and fermentation was less than the positive control • […] if weak or no growth or fermentation • NT if not tested Some codes were not tested based on the use or non-use by the bacteria, as a way to efficiently move through the assay plate screening to the competition assay, described below.
(§1) • 1. Create a 2% w/v stock of prebiotic or positive control (glucose/dextrose) to be tested in API 50 CHL media (Biomerieux, Marcy-I'Étoile, France). API 50 CHL media contains minimal amounts of carbon for growth, and a bromocresol purple as a pH indicator of fermentation. Filter sterilize media with a […]. Store at 4-6° C. until use. • 2. Add 180 μL of media containing the prebiotic to a sterile, flat bottom 96-well microtiter plate (Corning, Corning, NY). • 3. From a freezer stock subculture the bacteria twice into De Man, Rogosa and Sharpe (MRS) broth (BD Difco, Becton Dickinson, Franklin Lakes, NJ), 37° C., stationary, anaerobic, overnight. • 4. From the last subculture, plate onto an MRS agar plate (Teknova, Hollister, CA) and grow 37° C., stationary, anaerobic, overnight. • 5. Create a bacterial suspension by using a sterile tipped swab to transfer colonies of bacteria into a PBS suspension blank to a 0.5 MacFarland (S. anginosus or E. faecalis) or a 1 MacFarland (Lactobacillus species) from the MRS agar plate. • 6. Enumerate the starting culture. • 7. Inoculate the media alone and media containing the prebiotic or positive control with 20 μL of the bacterial suspension. • 8. Place the plate into a spectrophotometer (Molecular Devices, San Jose, CA) and read the plate every 20 minutes for 24-48 hours. Read wavelengths (OD 430, OD 590, and OD 660). A color change to yellow caused by a drop in pH will be read by an increase in the OD430 value and a decrease in the OD590 value and is indicative of bacterial fermentation. An increase in OD660 values is indicative of an increase in turbidity and bacterial growth.

E. coli = experiment: Additional prebiotic screening against E. coli; assay type: cell-based, Escherichia coli; settings: for # fermented, Ec-1 / # grew, Ec-1: E. coli KC16-7171-8, Bladder; for # fermented, Ec-1 / # grew, Ec-1 / # fermented, Ec-2 / # grew, Ec-2 / # fermented, Ec-3 / # grew, Ec-3 / # fermented, Ec-4 / # grew, Ec-4 / # fermented, Ec-5 / # grew, Ec-5: of 2 tested; for # fermented, Ec-2 / # grew, Ec-2: E. coli KC17-3969-1, Bladder; for # fermented, Ec-3 / # grew, Ec-3: E. coli KC17-3970-4, Vagina; for # fermented, Ec-4 / # grew, Ec-4: E. coli KC17-4296-4, Vagina; for # fermented, Ec-5 / # grew, Ec-5: E. coli KC17-4297-5, Bladder; for growth or fermentation of E. coli, in words: E. coli from vaginal or bladder source
Text: Additional screening of three prebiotic compounds of alpha-methyl-D-glucoside, isomaltulose, and alpha cyclodextrin was completed against pathogenic bacteria species Escherichia coli from both bladder and vaginal sources, as shown in Table 4. The growth of the bacterial species for this additional screening process against E. coli was not compared to growth of a control as in the screening process documented in Table 3, but was documented based on growth or no growth for the number of samples tested.
as §1

[1] = system: commensal and pathogenic bacterial species; experiment: Prebiotic screening, summary in words across species; assay type: cell-based; settings: commensal (L. crispatus, L. gasseri, L. jensenii) and pathogenic (S. anginosus, E. faecalis) species
In short: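 Prebiotics at 2% w/v stock in API 50 CHL medium with bromocresol purple, inoculated with bacteria and read every 20 min for 24-48 h at OD430/590 (fermentation) and OD660 (growth), scored against a glucose control. Some tested on MRS-based agar with the prebiotic in place of glucose; competition assay with L. crispatus and S. anginosus incubated 48 h anaerobically at 37 °C, then enumerated on MRS and TSA.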

Compound	growth and fermentation vs positive control, Lc-2 (L. crispatus; L. crispatus KC16-7134-3C, Bladder)	growth and fermentation vs positive control, Lc-4 (L. crispatus)	growth and fermentation vs positive control, Lj-2 (L. jensenii; L. jensenii KC17-4347-1, Bladder)	# fermented, Ec-1 (E. coli)	# grew, Ec-1 (E. coli)	# fermented, Ec-2 (E. coli)	# grew, Ec-2 (E. coli)	# fermented, Ec-3 (E. coli)	# grew, Ec-3 (E. coli)	# fermented, Ec-4 (E. coli)	# grew, Ec-4 (E. coli)	# fermented, Ec-5 (E. coli)	# grew, Ec-5 (E. coli)	growth or fermentation of E. coli, in words (E. coli)	overall outcome of the screening of Table 3, in words [1]	growth and fermentation vs positive control, Lc-3 (L. crispatus; L. crispatus KC18-1173-1, Bladder)	growth and fermentation vs positive control, Lj-1 (L. jensenii; L. jensenii KC17-4297-18, Bladder)
CO[C@H]1O[C@H](CO)[C@@H](O)[C@H](O)[C@H]1O [Alpha-Methyl-D-Glucoside]	+	+	+	0	0	0	0	0	0	0	0	0	0	did not grow or ferment	growing at least some of the commensal bacterial species and either having less growth than the positive control or almost no growth of the pathogenic bacterial species		
OC[C@H]1O[C@H](OC[C@H]2OC(O)(CO)[C@@H](O)[C@@H]2O)[C@H](O)[C@@H](O)[C@@H]1O (stereo partly drawn) [Palatinose (isomaltulose), isomaltulose]		++		0	0	0	0	0	0	0	0	0	0	did not grow or ferment	growing at least some of the commensal bacterial species and either having less growth than the positive control or almost no growth of the pathogenic bacterial species	++	+
